Values quoted from earlier work, collected in US20100240695A1, “[…] PHARMACEUTICAL COMPOSITIONS” (priority 2006, published 2010).

Conditions: average in a patient population

Cc1ccc(-c2nc3ccc(C)cn3c2CC(=O)N(C)C)cc1 [zolpidem]
plasma level below which residual sedative effects are essentially extinguished: below 20 ng/ml
